This is an account of results in US8329895B2, “Cefdinir acid double salt and method for producing the same” (Zhejiang Adamerck Biopharmlabs Inc., priority 2008, dated 2012).

Series [1] can be described thus: Bioavailability comparison in beagles, capsules by intragastric administration, cefdinir concentration in venous blood. Conditions: for AUC(0-t) / Cmax / Time to peak / AUC(0-10): capsules containing 200 mg of cefdinir, intragastric administration; for AUC(0-t) / AUC(0-10): 0-10 h; for Cmax: cefdinir in venous blood; for Bioavailability percentage increase: compared with conventional cefdinir capsule. The format is in vivo. The method, then: Beagles, half male and half female, with body weight of 10 kg, were starved for 12 hrs and only water fed. The compounds of the invention were formulated into capsules containing 200 mg of cefdinir and fed to beagles by intragastric administration. The control group was administered with conventional cefdinir capsules. 3 hrs later, the beagles were fed with common food. At 0 h, 0.5 h, 1 h, 1.5 h, 2 h, 2.5 h, 3 h, 4 h, 6 h, 8 h, and 10 h after intragastric administration, 0.5 mL of venous blood was collected respectively to measure the concentration of cefdinir.

Series [2] can be described thus: Solubility of cefdinir and the double salts in water. The class given is physicochemical. The source says: The solubility of the compounds of the invention has been increased by 100 times. Table 1 lists the solubility of the compounds of the invention.)
The conditions of series [3]: heating; salt disclosed in CN 1,415,615A; cited from earlier work.
The conditions of series [4]: background statement; cited from earlier work.
For series [5] the following is noted: cited from earlier work.
The mark [6] stands for this setting: both sexes, beagle, dog, venous blood, po, 200 mg.
The mark [7] stands for this setting: both sexes, beagle, dog, venous blood, po, 200 mg, read-out: Cmax.

Each structure is given as a SMILES string. Where a name gives a salt, the structure may show the parent alone. Read-outs that look alike come from different tables or passages of the source.

A word on the AUC(0-t): it is exposure summed from dosing to a finite time, without extrapolation to infinity. The term Cmax denotes the peak of the concentration-time curve. Take `C=CC1=C(C(=O)O)N2C(=O)[C@@H](NC(=O)/C(=N\O)c3csc(N)n3)[C@H]2SC1` [Cefdinir potassium hydrogen sulfate, (−)-(6R,7R)-7-((Z)-2-(2-aminothiazole-4-yl)-2-hydroxyimino-acetylamino)-8-oxo-3-vinyl-5-thia-1-azabicyclo(4.2.0)oct-2-ene-2-carboxylic acid potassium hydrogen sulfate]: the AUC(0-t) in series [1] (setting [6]) turned out to be 261 µg·h/mL. The highest concentration (Cmax) in series [1] (setting [7]) stood at 54.1 µg/mL. In series [1] (potassium hydrogen sulfate), the Time to peak amounted to 2.5 h and the Bioavailability percentage increase is given as 156%. In series [2] (potassium hydrogen sulfate), the Solubility entry was “Slightly soluble”.

For `C=CC1=C(C(=O)[O-])N2C(=O)C(NC(=O)C(=NO)c3csc(N)n3)C2SC1.[Na+]` (stereo not drawn) [sodium cefdinir], in series [3], the “Temperature at which the salt turns black” value is 190 °C and the “Temperature at which the salt turns yellow” value was “about 160 °C”.

As for `C=CC1=C(C(=O)O)N2C(=O)C(NC(=O)/C(=N\O)c3csc(N)n3)C2SC1` (single isomer, unassigned; (-)), in series [1] (setting [6]), the AUC(0-t) came out at 240 µg·h/mL. Further, the peak concentration (Cmax) in series [1] (setting [7]) amounted to 50.2 µg/mL.

As to `C=CC1=C(C(=O)O)N2C(=O)C(NC(=O)/C(=N\O)c3csc(N)n3)C2SC1` (single isomer, unassigned; (-)) [Cefdinir potassium(0.5) hydrogen(1.5) sulfate], in series [1], the Time to peak is 3 h, the “AUC(0-10)” value worked out at 213.40 µg·h/mL, the Cmax is 47.65 µg/mL and the Bioavailability percentage increase stood at 109%. In addition, the Solubility result in series [2] was “Soluble”.

On to `C=CC1=C(C(=O)O)N2C(=O)[C@@H](NC(=O)/C(=N\O)c3csc(N)n3)[C@H]2SC1` [Cefdinir ammonium hydrogen sulfate, (−)-(6R,7R)-7-((Z)-2-(2-aminothiazole-4-yl)-2-hydroxyimino-acetylamino)-8-oxo-3-vinyl-5-thia-1-azabicyclo(4.2.0)oct-2-ene-2-carboxylic acid ammonium hydrogen sulfate], for which, in series [1] (ammonium hydrogen sulfate), the “AUC(0-10)” value came out at 202.18 µg·h/mL, the Time to peak is given as 3 h, the Cmax amounted to 43.63 µg/mL and the Bioavailability percentage increase was 98%. In series [2] (ammonium hydrogen sulfate), the Solubility entry is on record as “Slightly soluble”.

Broadly, the bioavailability is the share of a dose that reaches the circulation, judged against a reference dose that is usually intravenous. Take `C=CC1=C(C(=O)O)N2C(=O)[C@@H](NC(=O)/C(=N\O)c3csc(N)n3)[C@H]2SC1` [Cefdinir]: the Solubility in water entry in series [4] was “insoluble”. Besides, in series [2], the Solubility entry was “hardly soluble”. Besides, the bioavailability is listed as 16-20% in series [5] (capsule) and 25% in series [5] (liquid suspension).

In the case of `C=CC1=C(C(=O)O)N2C(=O)[C@@H](NC(=O)/C(=N\O)c3csc(N)n3)[C@H]2SC1` [Cefdinir potassium dihydrogen phosphate, (−)-(6R,7R)-7-((Z)-2-(2-aminothiazole-4-yl)-2-hydroxyimino-acetylamino) 8-oxo-3-vinyl-5-thia-1-azabicyclo(4.2.0)oct-2-ene-2-carboxylic acid potassium dihydrogen phosphate], in series [1] (phosphate), the “AUC(0-10)” value came to 152.15 µg·h/mL, the Cmax was found to be 30.37 µg/mL, the Time to peak was determined as 3 h and the Bioavailability percentage increase is on record as 49%.

Regarding `C=CC1=C(C(=O)O)N2C(=O)[C@@H](NC(=O)/C(=N\O)c3csc(N)n3)[C@H]2SC1` [Cefdinir sodium dihydrogen phosphate, (−)-(6R,7R)-7-((Z)-2-(2-aminothiazole-4-yl)-2-hydroxyimino-acetylamino)-8-oxo-3-vinyl-5-thia-1-azabicyclo(4.2.0)oct-2-ene-2-carboxylic acid sodium dihydrogen phosphate], in series [1] (phosphate), the “AUC(0-10)” value turned out to be 123.55 µg·h/mL, the peak concentration (Cmax) was found to be 27.28 µg/mL, the Time to peak amounted to 2.5 h and the Bioavailability percentage increase turned out to be 20%. Besides, the Solubility entry in series [2] (phosphate) is “Slightly soluble”.

As to `C=CC1=C(C(=O)O)N2C(=O)C(NC(=O)/C(=N\O)c3csc(N)n3)C2SC1` (single isomer, unassigned; (-)) [Cefdinir sodium(0.5) hydrogen(1.5) sulfate], in series [1], the Time to peak is given as 3 h and the Bioavailability percentage increase is reported as 135%. In addition, the Solubility result in series [2] is “Soluble”.

Take `C=CC1=C(C(=O)O)N2C(=O)[C@@H](NC(=O)/C(=N\O)c3csc(N)n3)[C@H]2SC1` [Cefdinir sodium hydrogen sulfate, (−)-(6R,7R)-7-((Z)-2-(2-aminothiazole-4-yl)-2-hydroxyimino-acetylamino)-8-oxo-3-vinyl-5-thia-1-azabicyclo(4.2.0)oct-2-ene-2-carboxylic acid sodium hydrogen sulfate]: in series [1] (sodium hydrogen sulfate), the “AUC(0-10)” value was 255.27 µg·h/mL, the Cmax was 65.43 µg/mL, the Time to peak is 3 h and the Bioavailability percentage increase was determined as 149%. For the same molecule, the Solubility result in series [2] (sodium hydrogen sulfate) is “Slightly soluble”.

With `C=CC1=C(C(=O)O)N2C(=O)C(NC(=O)/C(=N\O)c3csc(N)n3)C2SC1` (single isomer, unassigned; (-)) [Cefdinir ammonium(0.5) hydrogen(1.5) sulfate], in series [1], the Time to peak worked out at 2.5 h, the “AUC(0-10)” value was 160.31 µg·h/mL, the Cmax is 34.12 µg/mL and the Bioavailability percentage increase is listed as 57%. The Solubility entry in series [2] is “Soluble”.
